ChEMBL document CHEMBL3044652, “Synthesis of novel 2-alkyl-4-substituted-amino-pyrazolo[3,4-d]pyrimidines as new leads for anti-bacterial and anti-cancer activity” (2013)

How the values were obtained:
Type in all cases: functional
Bacillus subtilis = assay: Antibacterial activity against Bacillus subtilis NCIM 2545 at 20 ug/ml after 24 hr by agar diffusion method; details: NCIM 2545, 24 h, read-out: IZ
G-361 [1] = assay: Cytotoxicity against Homo sapiens (human) G361 cells assessed as cell growth at 10^-5 M by SRB assay relative to control; details: read-out: Activity
G-361 [2] = assay: Cytotoxicity against Homo sapiens (human) G361 cells by SRB assay
G-361 [3] = assay: Cytotoxicity against Homo sapiens (human) G361 cells assessed as cell growth at 10^-7 M by SRB assay relative to control; details: read-out: Activity
G-361 [4] = assay: Cytotoxicity against Homo sapiens (human) G361 cells assessed as cell growth at 10^-4 M by SRB assay relative to control; details: read-out: Activity
Escherichia coli = assay: Antibacterial activity against Escherichia coli NCIM 2803 at 20 ug/ml after 24 hr by agar diffusion method; details: NCIM 2803, 24 h, read-out: IZ
G-361 [5] = assay: Cytotoxicity against Homo sapiens (human) G361 cells assessed as cell growth at 10^-6 M by SRB assay relative to control; details: read-out: Activity
[6] = system: Staphylococcus epidermidis; assay: Antibacterial activity against Staphylococcus epidermidis NCIM 2493 at 20 ug/ml after 24 hr by agar diffusion method; details: NCIM 2493, 24 h, read-out: IZ
Staphylococcus aureus = assay: Antibacterial activity against Staphylococcus aureus NCIM 5021 at 20 ug/ml after 24 hr by agar diffusion method; details: NCIM 5021, 24 h, read-out: IZ

SMILES: c1ccc(-n2ncc3c(NCc4ccco4)ncnc32)cc1
- zone of inhibition at 20 µg/mL (Bacillus subtilis): 13.6 mm
- growth at 10 µM (G-361 [1]): 92.3%
- GI50 (G-361 [2]): > 100 µM
- TGI (G-361 [2]): > 100 µM
- growth at 0.1 µM (G-361 [3]): 100%
- growth at 100 µM (G-361 [4]): 51.7%
- zone of inhibition at 20 µg/mL (Escherichia coli): 12.8 mm
- growth at 1 µM (G-361 [5]): 97.5%
- zone of inhibition at 20 µg/mL [6]: 13.6 mm
- zone of inhibition at 20 µg/mL (Staphylococcus aureus): 13 mm

SMILES: CC(C)Nc1ncnc2c1cnn2-c1ccccc1
- zone of inhibition at 20 µg/mL (Bacillus subtilis): 13.3 mm
- zone of inhibition at 20 µg/mL (Escherichia coli): 13.3 mm
- zone of inhibition at 20 µg/mL [6]: 13.6 mm
- zone of inhibition at 20 µg/mL (Staphylococcus aureus): 13.6 mm

SMILES: ClCc1nc(Cl)c2cnn(-c3ccccc3)c2n1
- growth at 10 µM (G-361 [1]): 90.9%
- GI50 (G-361 [2]): 2.08 µM
- LC50 (G-361 [2]): > 100 µM
- TGI (G-361 [2]): 33.2 µM
- growth at 0.1 µM (G-361 [3]): 100%
- growth at 100 µM (G-361 [4]): -59.3%
- growth at 1 µM (G-361 [5]): 100%

SMILES: CCc1nc(NC(C)C)c2cnn(-c3ccccc3)c2n1
- zone of inhibition at 20 µg/mL (Bacillus subtilis): 13.3 mm
- growth at 10 µM (G-361 [1]): 83.3%
- GI50 (G-361 [2]): 38 µM
- LC50 (G-361 [2]): > 100 µM
- TGI (G-361 [2]): > 100 µM
- growth at 0.1 µM (G-361 [3]): 100%
- growth at 100 µM (G-361 [4]): 40%
- zone of inhibition at 20 µg/mL (Escherichia coli): 13.3 mm
- growth at 1 µM (G-361 [5]): 96.4%
- zone of inhibition at 20 µg/mL [6]: 13.6 mm
- zone of inhibition at 20 µg/mL (Staphylococcus aureus): 13.6 mm

SMILES: CCCCNc1nc(CC)nc2c1cnn2-c1ccccc1
- zone of inhibition at 20 µg/mL (Bacillus subtilis): 12.8 mm
- growth at 10 µM (G-361 [1]): 84.8%
- GI50 (G-361 [2]): 2.02 µM
- LC50 (G-361 [2]): > 100 µM
- TGI (G-361 [2]): 32 µM
- growth at 0.1 µM (G-361 [3]): 100%
- growth at 100 µM (G-361 [4]): -62.5%
- zone of inhibition at 20 µg/mL (Escherichia coli): 12.7 mm
- growth at 1 µM (G-361 [5]): 96.5%
- zone of inhibition at 20 µg/mL [6]: 13 mm
- zone of inhibition at 20 µg/mL (Staphylococcus aureus): 13.3 mm

SMILES: CCc1nc(NCc2ccco2)c2cnn(-c3ccccc3)c2n1
- zone of inhibition at 20 µg/mL (Bacillus subtilis): 13.6 mm
- growth at 10 µM (G-361 [1]): 86.3%
- GI50 (G-361 [2]): 2.04 µM
- LC50 (G-361 [2]): > 100 µM
- TGI (G-361 [2]): 32 µM
- growth at 0.1 µM (G-361 [3]): 100%
- growth at 100 µM (G-361 [4]): -61%
- zone of inhibition at 20 µg/mL (Escherichia coli): 12.7 mm
- growth at 1 µM (G-361 [5]): 96.5%
- zone of inhibition at 20 µg/mL [6]: 13.6 mm
- zone of inhibition at 20 µg/mL (Staphylococcus aureus): 13.3 mm

SMILES: CCc1nc(N2CCOCC2)c2cnn(-c3ccccc3)c2n1
- zone of inhibition at 20 µg/mL (Bacillus subtilis): 13.3 mm
- growth at 10 µM (G-361 [1]): 65.9%
- GI50 (G-361 [2]): 28 µM
- LC50 (G-361 [2]): > 100 µM
- TGI (G-361 [2]): > 100 µM
- growth at 0.1 µM (G-361 [3]): 100%
- growth at 100 µM (G-361 [4]): 30.9%
- zone of inhibition at 20 µg/mL (Escherichia coli): 13 mm
- growth at 1 µM (G-361 [5]): 85.5%
- zone of inhibition at 20 µg/mL [6]: 13 mm
- zone of inhibition at 20 µg/mL (Staphylococcus aureus): 13 mm

SMILES: CCc1nc(Nc2ccccc2)c2cnn(-c3ccccc3)c2n1
- zone of inhibition at 20 µg/mL (Bacillus subtilis): 13.3 mm
- zone of inhibition at 20 µg/mL (Escherichia coli): 13.3 mm
- zone of inhibition at 20 µg/mL [6]: 13.6 mm
- zone of inhibition at 20 µg/mL (Staphylococcus aureus): 13.6 mm

SMILES: CC(C)c1nc(Nc2ccccc2)c2cnn(-c3ccccc3)c2n1
- zone of inhibition at 20 µg/mL (Bacillus subtilis): 13.5 mm
- growth at 10 µM (G-361 [1]): 91.9%
- GI50 (G-361 [2]): 32 µM
- LC50 (G-361 [2]): > 100 µM
- TGI (G-361 [2]): > 100 µM
- growth at 0.1 µM (G-361 [3]): 100%
- growth at 100 µM (G-361 [4]): 19.2%
- zone of inhibition at 20 µg/mL (Escherichia coli): 12.8 mm
- growth at 1 µM (G-361 [5]): 100%
- zone of inhibition at 20 µg/mL [6]: 13.3 mm
- zone of inhibition at 20 µg/mL (Staphylococcus aureus): 13.3 mm

SMILES: CCCNCc1nc(NCCC)c2cnn(-c3ccccc3)c2n1
- zone of inhibition at 20 µg/mL (Bacillus subtilis): 13.6 mm
- growth at 10 µM (G-361 [1]): 100%
- GI50 (G-361 [2]): > 100 µM
- TGI (G-361 [2]): > 100 µM
- growth at 0.1 µM (G-361 [3]): 100%
- growth at 100 µM (G-361 [4]): 75.1%
- zone of inhibition at 20 µg/mL (Escherichia coli): 13.3 mm
- growth at 1 µM (G-361 [5]): 99.6%
- zone of inhibition at 20 µg/mL [6]: 13.3 mm
- zone of inhibition at 20 µg/mL (Staphylococcus aureus): 13.3 mm

SMILES: CC(C)NCc1nc(NC(C)C)c2cnn(-c3ccccc3)c2n1
- zone of inhibition at 20 µg/mL (Bacillus subtilis): 13.6 mm
- growth at 10 µM (G-361 [1]): 99.7%
- GI50 (G-361 [2]): > 100 µM
- LC50 (G-361 [2]): > 100 µM
- TGI (G-361 [2]): > 100 µM
- growth at 0.1 µM (G-361 [3]): 100%
- growth at 100 µM (G-361 [4]): 56.5%
- zone of inhibition at 20 µg/mL (Escherichia coli): 13 mm
- growth at 1 µM (G-361 [5]): 100%
- zone of inhibition at 20 µg/mL [6]: 1.33 mm
- zone of inhibition at 20 µg/mL (Staphylococcus aureus): 1.3 mm

SMILES: CCNCc1nc(NCC)c2cnn(-c3ccccc3)c2n1
- zone of inhibition at 20 µg/mL (Bacillus subtilis): 12.7 mm
- growth at 10 µM (G-361 [1]): 100%
- GI50 (G-361 [2]): > 100 µM
- LC50 (G-361 [2]): > 100 µM
- TGI (G-361 [2]): > 100 µM
- growth at 0.1 µM (G-361 [3]): 100%
- growth at 100 µM (G-361 [4]): 87.7%
- zone of inhibition at 20 µg/mL (Escherichia coli): 13.3 mm
- growth at 1 µM (G-361 [5]): 100%
- zone of inhibition at 20 µg/mL [6]: 13.6 mm
- zone of inhibition at 20 µg/mL (Staphylococcus aureus): 12.6 mm

SMILES: c1ccc(-n2ncc3c(N4CCOCC4)nc(CN4CCOCC4)nc32)cc1
- zone of inhibition at 20 µg/mL (Bacillus subtilis): 13 mm
- growth at 10 µM (G-361 [1]): 94.3%
- GI50 (G-361 [2]): > 100 µM
- LC50 (G-361 [2]): > 100 µM
- TGI (G-361 [2]): > 100 µM
- growth at 0.1 µM (G-361 [3]): 99.7%
- growth at 100 µM (G-361 [4]): 47.6%
- zone of inhibition at 20 µg/mL (Escherichia coli): 13.6 mm
- growth at 1 µM (G-361 [5]): 99.6%
- zone of inhibition at 20 µg/mL [6]: 13.3 mm
- zone of inhibition at 20 µg/mL (Staphylococcus aureus): 13.6 mm
